Laboratory results reported in patent US20150056209A1, “PEPTIDE MIMOTOPES TO OXIDATION SPECIFIC EPITOPES” (The Regents of the University of California, priority 2012, published 2015).
Bridges are numbered along the chain shown (N, C = ends). Where no end group is shown, it is not given here.

Experiments:
LRO4 [1] = assay: Competition immunoassays for LRO4 binding; set-up: species or system murine; conditions: 0.5 μg/mL LRO4, increasing concentrations of soluble competitor; for competition for LRO4 binding to captured biotinylated P1: 100 ng/mL captured P1; for competition for LRO4 binding to captured biotinylated P2: 100 ng/mL captured P2; for competition for LRO4 binding to coated MAA-BSA: 0.5 μg/mL coated MAA-BSA
Method: (§1) The specific binding of LRO4 to mimotopes was determined by competition immunoassays. Fifty μl of 0.5 μg/mL MAA-BSA or 100 ng/mL of biotinylated peptides were plated as described above. LRO4 antibody was incubated in TBS-1% BSA with or without increasing concentrations of competitors (BSA, MAA-BSA, P1, P2 and control peptide) for 30 minutes at RT. Binding of LRO4 was determined by chemiluminescent ELISA. The specificity of human plasma Ab binding to P1 was determined in a similar manner. In preliminary experiments, aliquots of pooled plasma samples (n=26) from a published cohort of healthy subjects were diluted in 1% BSA-TBS to yield a limiting plasma dilution. Diluted plasma (1:1,000) and increasing concentrations of competitors were incubated overnight at 4° C. Samples were then centrifuged at 15,800 g for 45 minutes at 4° C. to pellet immune complexes, and supernatants were analyzed for binding to plated P1 (10 μg/mL) by chemiluminescent ELISA.

[2] = tested on: human MDA-specific IgG Fab IK17; assay: ELISA for binding of the human monoclonal Fab IK17; conditions: antigens coated; biotinylated IK17 at increasing concentrations
Method: ELISA for binding of the human monoclonal Fab IK17. P1, P2, and MAA-BSA were coated onto microtiter plates, and biotinylated IK17 (Biot.IK17) was added at indicated concentrations. Binding was detected by chemiluminescent detection using AP-conjugated neutravidin. Values are given as relative light units (RLU) per 100 ms and represent the mean±SD of triplicate determinations.
(§2) Binding of mAb as well as plasma Abs to respective antigens was measured by chemiluminescent ELISA. Antigens were coated at 5 μg/mL in PBS/EDTA (pH 7.4). Synthetic peptides were directly coated at 10 μg/mL (P1) or 5 μg/mL (P2) in 0.1M NaHCO3 buffer (pH 8.6), unless indicated differently. Biotinylated peptides were immobilized at indicated concentrations in 0.1M NaHCO3 buffer (pH 8.6) on wells pre-coated with 10 μg/mL neutravidin (Pierce, Rockford, Ill., USA). Ab binding was measured using alkaline phosphatase (AP) labeled secondary Abs (described below) followed by chemiluminescent detection. For the detection of human autoAbs, a 1:400 plasma dilution was used. For human assays, internal controls consisting of high and low standard plasma samples were included on each microtiter plate to detect potential variations between microtiter plates. The intra-assay coefficients of variation for all assays were 10 to 14%.
(§3) The following secondary Abs were used: Alkaline Phosphatase (AP)-labeled goat anti-mouse IgM (μ-chain specific), IgG (γ-chain specific), IgG1 (Sigma-Aldrich) and IgG2c (Southern Biotech). For the detection of human autoAbs AP-labeled goat anti human IgG (γ-chain specific) and IgM (μ-chain specific) (Sigma-Aldrich) were used. Biotin-conjugated Abs were detected with AP-conjugated neutravidin (1:10,000; Pierce).

LRO4 [3] = assay: Chemiluminescent ELISA, binding of LRO4 to plated or captured peptides; set-up: species or system murine; conditions: peptides directly plated at increasing concentrations; LRO4 5 μg/mL
Method: as §2, §3

PC-specific IgM mAb EO6 = assay: Chemiluminescent ELISA, binding of EO6 to plated peptides; set-up: species or system murine; conditions: EO6 5 μg/mL; peptides coated at 5-10 μg/mL
Method: (A) ELISA for the binding of LRO4 to BSA, MAA-BSA, the P2 mimotope (ACNNSNMPLC-GGGS) (SEQ ID NO:3) and a scrambled peptide (ACSPNLNMNC-GGGS) (SEQ ID NO:4) of P2 (Scr.P2). Peptides were coated at 20 μg/ml, BSA and MAA-BSA at 5 μg/ml, and binding of indicated concentrations of LRO4 was determined by chemiluminescent ELISA as described in Methods. (B) ELISA for binding of LRO4 and EO6. P1, P2, BSA, MAA-BSA, nLDL, MDA-LDL, and CuOx-LDL were coated at 5-10 μg/mL. Binding of LRO4 and EO6 (both at 5 μg/mL) was determined by chemiluminescent ELISA. (C) Immunocompetition assay for the specificity of LRO4. Binding of 0.5 μg/mL LRO4 to 100 ng/mL captured biotinylated peptides P2 was measured by ELISA in the presence of increasing concentrations of P2 and scrambled P2. […]
Binding of mAb as well as plasma Abs to respective antigens was measured by chemiluminescent ELISA. […] Ab binding was measured using alkaline phosphatase (AP) labeled secondary Abs (described below) followed by chemiluminescent detection. […]

[4] = tested on: human plasma IgG and IgM autoAbs; assay: Chemiluminescent ELISA of human plasma autoAbs to coated mimotopes; type: binding; conditions: n=18 healthy volunteers, plasma 1:400
Method: as §2, with “For human assays, internal controls consisting of high and low standard plasma samples were included on each microtiter plate to detect potential variations between microtiter plates. The intra-assay coefficients of variation for all assays were 10 to 14%.” left out
The following secondary Abs were used: Alkaline Phosphatase (AP)-labeled goat anti-mouse IgM (μ-chain specific), IgG (γ-chain specific), IgG1 (Sigma-Aldrich) and IgG2c (Southern Biotech). […] Biotin-conjugated Abs were detected with AP-conjugated neutravidin (1:10,000; Pierce).
Human plasma samples from two independent studies were analyzed for the presence of anti-peptide Abs. […] For these studies, autoAb titers to MDA-LDL as the antigen have already been reported, to allow ready comparisons to the new data generated here. […]
Statistical analyses were performed with GraphPad Prism 5 for Windows (Graphpad Software, Inc., San Diego, Calif.). […] For continuous variables, differences were evaluated by one-way analysis of variances (ANOVA). […]

apoptotic Jurkat T-cells = assay: Flow cytometry, LRO4 binding to apoptotic Jurkat T-cells; type: cell-based; conditions: UV-induced apoptotic Jurkat T-cells; increasing concentrations of soluble peptide
Method: Binding of LRO4 IgM to apoptotic Jurkat T-cells was assessed by flow cytometry. Apoptosis of Jurkat cells was induced by UV irradiation (UV Stratalinker, Stratagene, USA) at 20 mJ/cm^2, followed by further incubation of the cells in serum free medium for 14-16 hours. After washing in FACS buffer (PBS with 0.1% BSA) 10^6 cells were incubated with 1 μg LRO4 in 100 μl FACS buffer for 30 minutes at 4° C. In parallel experiments, cells were incubated with LRO4 in the presence of increasing concentrations of P1, P2, and an irrelevant control peptide. Following a washing step, cells were stained with FITC-labeled anti-mouse IgM (II/41, BD Biosciences-Pharmingen) in 100 μL staining buffer for 30 minutes at 4° C. in darkness and washed again. Thereafter, cells were incubated with PE-labeled Annexin-V and 7-AAD (BD Bioscience-Pharmingen) in Annexin-V binding buffer for 15 minutes and immediately analyzed by flow cytometry using a BD LSR II analyzer (BD Bioscience, San Jose, Calif., USA). More than 5.0×10^4 cells were acquired per sample, and data analysis was performed using FlowJo software (Tree Star Inc, San Carlos, Calif., USA).

[5] = tested on: human plasma IgM and IgG Abs; assay: Immunocompetition assay, human plasma Ab binding to plated P1; conditions: pooled human plasma 1:1,000; increasing concentrations of soluble competitor
Method: as §1

Substance	competition for LRO4 binding to captured biotinylated P1 (LRO4 [1])	competition for LRO4 binding to captured biotinylated P2 (LRO4 [1])	competition for LRO4 binding to coated MAA-BSA (LRO4 [1])	binding of IK17 [2]	binding of LRO4 to plated peptides (LRO4 [3])	binding of EO6 to plated peptides (PC-specific IgM mAb EO6)	inhibition of binding of IgM and IgG Abs to plated P1 [5]	IgG and IgM titers in plasma of healthy volunteers [4]	inhibition of LRO4 binding to apoptotic cells (apoptotic Jurkat T-cells)
ACNNSNMPLC (disulfide 2-10 (inferred); not fully specified (C-terminus)) [P2]	fully competed	fully competed	effectively competed	in a dose-dependent manner	bound by LRO4 in a dose dependent manner	did not react		Plasma of all individuals contained both IgG and IgM titers	fully inhibited
HSWTNSWMATFL (not fully specified (C-terminus)) [P1]	did not compete	did not compete	did not have an effect	in a dose-dependent manner	bound by LRO4 in a dose dependent manner	did not react		Plasma of all individuals contained both IgG and IgM titers	
IMGVGAVGAGAI (Control peptide) [irrelevant control peptide, reference compound]	had no effect	had no effect							not

More lines, main results first:

competition for LRO4 binding to captured biotinylated P1 (LRO4 [1])	competition for LRO4 binding to captured biotinylated P2 (LRO4 [1])	competition for LRO4 binding to coated MAA-BSA (LRO4 [1])	binding of IK17 [2]	binding of LRO4 to plated peptides (LRO4 [3])	binding of EO6 to plated peptides (PC-specific IgM mAb EO6)	inhibition of binding of IgM and IgG Abs to plated P1 [5]	Substance	IgG and IgM titers in plasma of healthy volunteers [4]	inhibition of LRO4 binding to apoptotic cells (apoptotic Jurkat T-cells)
	had no effect			not recognized by LRO4			ACSPNLNMNC (ACSPNLNMNCGGGS-NH2; cysteine pairing not given here) [scrambled peptide of P2, reference compound]		
fully competed	fully competed	effectively competed	bound			nearly completely inhibited	MAA-BSA: malondialdehyde-acetaldehyde (MAA)-modified BSA [reference compound]		
